This is an account of results in patent publication US20240294499A1, “TARGETED PROTEIN DEGRADATION USING BIFUNCTIONAL COMPOUNDS THAT BIND UBIQUITIN LIGASE AND TARGET MCL-1 PROTEIN” (Captor Therapeutics S.A., priority 2021, published 2024).

Where only a bound is given, the exact number is not on record here.

Test [1] addresses [MCL-1]-[compound of formula (I)]-[CRBN/DDB1] complex (Homo sapiens, UniProt Q07820+Q96SW2). Briefly: HTRF ternary complex assay. The format is binding. To be noted: ternary complex formation; read-out: HTRF ternary complex Average pEC50 by molecule (converted). The protocol: The effect of the bifunctional compounds of the invention on the formation of a ternary complex composed of [MCL-1]-[compound of formula (I)]-[CRBN/DDB1] was investigated.
Mix of protein solution were prepared: • 48 nM hMcl-1 and 105.6 nM CRBN was prepared in PPI Europium detection buffer with 2 mM DTT. • Acceptor and donor stock solutions were diluted 100 times in PPI Europium detection buffer. Equal volumes of both reagents were mixed. Finally giving 3 nM of Streptavidin-Eu cryptate […] and 6.67 nM of Anti-6× his-d2 […].
5 μl of protein mix was dispensed to all wells. The tested compounds in dose-response were dispensed onto a white 384-well low volume plate (Greiner, 784075). DMSO was backfilled to all wells, resulting in a final DMSO content of 0.5%. Wells containing only DMSO served as background. Next, 5 μl of solution with donor and acceptor was added to the wells.
The plate was sealed with transparent film and shaken using a VibroTurbulator for 60 see at level 3. The plate was then spun down shortly (10 s, 1000 rcf) and incubated at 25° C. for 180 min.
The read-out was performed with plate reader (Pherastar, BMG Labtech) in time resolved fluorescence mode. Filterset: TR 337 665 620.
The results were analyzed as follows: • 1) an average of fluorescence for background signal was calculated and used as a negative control; • 2) raw fluorescence values for tested compounds were normalized against negative controls; • 3) bell shape curve was fitted to a gaussian distribution using a non-linear least squares Gauss-Newton algorithm; • 4) EC50 and pEC50 values were determined.
(Time-resolved FRET reads energy transfer from a long-lived donor to a nearby acceptor.)

A further test concerns ARH-77 cells. Put plainly: Cell viability assay (CellTiter-Glo), ARH-77. To be noted: Homo sapiens, ARH-77, 24 hours incubation, 1% FBS, read-out: Average pIC50 by molecule ARH-77 (converted). The format is cell-based. The gist of the method: (§1)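 Luminescent ATP readout (CellTiter-Glo) at 24 hours measured viability, expressed relative to DMSO-treated wells. Compound was added directly to the medium as a 9–12-point threefold series starting at 30 uM, at 0.5% final DMSO. The medium contained FBS reduced to 1%.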
A general note: In ATP-based viability assays light output follows the ATP content of the culture.

For a further test, the system named is MV-4-11 cells. Briefly: Cell viability assay (CellTiter-Glo), MV-4-11. The format is cell-based. To be noted: Homo sapiens, MV4-11, 24 hours incubation, 1% FBS, read-out: Average pIC50 by molecule MV-4-11 (converted). The gist of the method: as §1

[MCL-1]-[compound of formula (I)]-[CRBN/DDB1] complex, sequence (Q07820 whole entry): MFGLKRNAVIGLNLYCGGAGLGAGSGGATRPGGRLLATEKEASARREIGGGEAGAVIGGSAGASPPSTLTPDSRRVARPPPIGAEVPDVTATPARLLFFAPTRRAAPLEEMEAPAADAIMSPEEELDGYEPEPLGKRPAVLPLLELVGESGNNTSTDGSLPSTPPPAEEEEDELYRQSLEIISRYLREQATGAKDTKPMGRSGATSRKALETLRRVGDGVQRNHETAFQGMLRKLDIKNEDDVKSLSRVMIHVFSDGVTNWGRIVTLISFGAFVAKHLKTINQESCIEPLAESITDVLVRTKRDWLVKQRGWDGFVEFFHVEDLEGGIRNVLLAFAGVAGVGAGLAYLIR
[MCL-1]-[compound of formula (I)]-[CRBN/DDB1] complex, sequence (Q96SW2 whole entry): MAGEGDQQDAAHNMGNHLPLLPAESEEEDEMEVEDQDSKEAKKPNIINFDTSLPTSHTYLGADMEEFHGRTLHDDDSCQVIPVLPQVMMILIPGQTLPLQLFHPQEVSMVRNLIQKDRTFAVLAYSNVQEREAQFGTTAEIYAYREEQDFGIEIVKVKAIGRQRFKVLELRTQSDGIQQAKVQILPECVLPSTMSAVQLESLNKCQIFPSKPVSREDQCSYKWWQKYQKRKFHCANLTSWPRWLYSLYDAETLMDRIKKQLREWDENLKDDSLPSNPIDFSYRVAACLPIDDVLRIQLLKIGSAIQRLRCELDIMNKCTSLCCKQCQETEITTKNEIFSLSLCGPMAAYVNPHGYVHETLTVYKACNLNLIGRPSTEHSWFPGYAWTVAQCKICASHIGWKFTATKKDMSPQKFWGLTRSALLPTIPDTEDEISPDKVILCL
[MCL-1]-[compound of formula (I)]-[CRBN/DDB1] complex, sequence (Q16531 whole entry partner): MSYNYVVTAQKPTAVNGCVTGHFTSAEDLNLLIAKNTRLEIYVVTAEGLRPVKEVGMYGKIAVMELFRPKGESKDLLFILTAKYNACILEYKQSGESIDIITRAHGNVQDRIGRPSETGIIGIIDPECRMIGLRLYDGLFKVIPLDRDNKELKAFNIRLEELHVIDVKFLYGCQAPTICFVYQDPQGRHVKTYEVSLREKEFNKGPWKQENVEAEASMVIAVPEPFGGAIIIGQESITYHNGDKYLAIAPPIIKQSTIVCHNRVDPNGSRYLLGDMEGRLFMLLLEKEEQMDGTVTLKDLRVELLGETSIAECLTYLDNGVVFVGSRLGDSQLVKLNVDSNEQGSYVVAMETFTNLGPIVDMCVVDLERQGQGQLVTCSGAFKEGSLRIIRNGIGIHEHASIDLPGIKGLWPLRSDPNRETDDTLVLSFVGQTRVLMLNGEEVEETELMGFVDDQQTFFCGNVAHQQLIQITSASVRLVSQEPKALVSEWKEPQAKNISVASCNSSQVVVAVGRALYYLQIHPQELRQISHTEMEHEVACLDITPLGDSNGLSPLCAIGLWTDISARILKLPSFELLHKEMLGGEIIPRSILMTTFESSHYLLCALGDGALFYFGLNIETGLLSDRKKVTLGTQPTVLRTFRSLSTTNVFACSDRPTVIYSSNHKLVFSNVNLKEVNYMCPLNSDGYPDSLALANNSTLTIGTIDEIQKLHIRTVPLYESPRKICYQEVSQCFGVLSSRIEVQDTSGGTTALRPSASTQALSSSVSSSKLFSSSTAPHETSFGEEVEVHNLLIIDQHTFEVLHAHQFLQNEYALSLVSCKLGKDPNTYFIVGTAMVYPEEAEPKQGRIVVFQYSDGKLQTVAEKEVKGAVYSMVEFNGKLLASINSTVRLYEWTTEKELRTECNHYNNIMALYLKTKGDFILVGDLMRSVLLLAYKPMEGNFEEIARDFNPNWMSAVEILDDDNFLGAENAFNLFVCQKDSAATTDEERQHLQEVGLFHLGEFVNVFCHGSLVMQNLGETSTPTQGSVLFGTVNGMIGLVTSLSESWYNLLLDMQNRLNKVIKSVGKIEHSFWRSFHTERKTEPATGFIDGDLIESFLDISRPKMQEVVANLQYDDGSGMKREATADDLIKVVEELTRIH

In the case of `Cc1nc2ccc(C(=O)N3CCN(CCn4c(C(=O)O)c(CCCOc5cccc6cc(F)ccc56)c5ccc(Cl)c(-c6c(C)nn(C)c6C)c54)CC3)cc2cc1C1CCC(=O)NC1=O` (stereo not shown) [Compound 290, 6-Chloro-1-(2-(4-(3-(2,6-dioxopiperidin-3-yl)-2-methylquinoline-6-carbonyl)piperazin-1-yl)ethyl)-3-(3-((6-fluoronaphthalen-1-yl)oxy)propyl)-7-(1,3,5-trimethyl-1H-pyrazol-4-yl)-1H-indole-2-carboxylic acid], in test [1], the EC50 is less than 10 nM. On the same count and under the same terms, the value for `Cc1noc(C)c1-c1c(Cl)ccc2c(CCCOc3cccc4cc(F)ccc34)c(C(=O)O)n(CCN3CCN(C(=O)COc4cccc5c4CN(C4CCC(=O)NC4=O)C5=O)CC3)c12` (stereo not shown) [Compound 347, 6-Chloro-7-(3,5-dimethylisoxazol-4-yl)-1-(2-(4-(2-((2-(2,6-dioxopiperidin-3-yl)-1-oxoisoindolin-4-yl)oxy)acetyl)piperazin-1-yl)ethyl)-3-(3-((6-fluoronaphthalen-1-yl)oxy)propyl)-1H-indole-2-carboxylic acid] was less than 100 nM.

As for `Cc1nn(C)c(C)c1-c1c(Cl)ccc2c(CCCOc3cccc4cc(F)ccc34)c(C(=O)O)n(CCN3CCC(N4CCN(c5cc6c(cc5F)C(=O)N(C5CCC(=O)NC5=O)C6=O)CC4)CC3)c12` (stereo not shown) [Compound 336, 6-Chloro-1-[2-(4-{4-[2-(2,6-dioxopiperidin-3-yl)-6-fluoro-1,3-dioxo-2,3-dihydro-1H-isoindol-5-yl]piperazin-1-yl}piperidin-1-yl)ethyl]-3-{3-[(6-fluoronaphthalen-1-yl)oxy]propyl}-7-(1,3,5-trimethyl-1H-pyrazol-4-yl)-1H-indole-2-carboxylic acid], the IC50 in the test with ARH-77 cells is more than 10000 nM; in the test on MV-4-11 cells, not above 100 nM. Further, the EC50 in test [1] was less than 10 nM. For `Cc1nn(C)c(C)c1-c1c(Cl)ccc2c(CCCOc3cccc4cc(F)ccc34)c(C(=O)O)n(CCN3CC4(CCCN(C(=O)COc5cccc6c5CN(C5CCC(=O)NC5=O)C6=O)C4)C3)c12` (stereo not shown) [Compound 304, 6-Chloro-1-(2-(6-(2-((2-(2,6-dioxopiperidin-3-yl)-1-oxoisoindolin-4-yl)oxy)acetyl)-2,6-diazaspiro[3.5]nonan-2-yl)ethyl)-3-(3-((6-fluoronaphthalen-1-yl)oxy)propyl)-7-(1,3,5-trimethyl-1H-pyrazol-4-yl)-1H-indole-2-carboxylic acid], the EC50 in test [1] is less than 100 nM. In the case of `O=C1CCC(N2Cc3c(OCC(=O)N4CCN(CCn5c(C(=O)O)c(CCCOc6cccc7cc(F)ccc67)c6ccc(Cl)c(-c7cnn8cccnc78)c65)CC4)cccc3C2=O)C(=O)N1` (stereo not shown) [Compound 348, 6-Chloro-1-(2-(4-(2-((2-(2,6-dioxopiperidin-3-yl)-1-oxoisoindolin-4-yl)oxy)acetyl)piperazin-1-yl)ethyl)-3-(3-((6-fluoronaphthalen-1-yl)oxy)propyl)-7-(pyrazolo[1,5-a]pyrimidin-3-yl)-1H-indole-2-carboxylic acid], the IC50 was more than 10000 nM in the test with ARH-77 cells and not above 316 nM with MV-4-11 cells. Further, the EC50 in test [1] was less than 100 nM.

As to `Cc1nn(C)c(C)c1-c1c(Cl)ccc2c(CCCOc3cccc4cc(F)ccc34)c(C(=O)O)n(CCN3CCC(C(=O)N4CCN(c5cc6c(cc5F)C(=O)N(C5CCC(=O)NC5=O)C6=O)CC4)CC3)c12` (stereo not shown) [Compound 333, 6-Chloro-1-[2-(4-{4-[2-(2,6-dioxopiperidin-3-yl)-6-fluoro-1,3-dioxo-2,3-dihydro-1H-isoindol-5-yl]piperazine-1-carbonyl}piperidin-1-yl)ethyl]-3-{3-[(6-fluoronaphthalen-1-yl)oxy]propyl}-7-(1,3,5-trimethyl-1H-pyrazol-4-yl)-1H-indole-2-carboxylic acid], in test [1], the EC50 was less than 10 nM. Also, the IC50 in the test with MV-4-11 cells was not above 1000 nM.

Regarding `Cc1nn(C)c(C)c1-c1c(Cl)ccc2c(CCCOc3cccc4cc(F)ccc34)c(C(=O)O)n(CCN3CCN(C(=O)CSc4cccc5c4CN(C4CCC(=O)NC4=O)C5=O)CC3)c12` (stereo not shown) [Compound 322, 6-Chloro-1-(2-(4-(2-((2-(2,6-dioxopiperidin-3-yl)-1-oxoisoindolin-4-yl)thio)acetyl)piperazin-1-yl)ethyl)-3-(3-((6-fluoronaphthalen-1-yl)oxy)propyl)-7-(1,3,5-trimethyl-1H-pyrazol-4-yl)-1H-indole-2-carboxylic acid], the EC50 in test [1] was less than 100 nM. `Cc1nn(C)c(C)c1-c1c(Cl)ccc2c(CCCOc3cccc4cc(F)ccc34)c(C(=O)O)n(CCN3CCN(C4CN(c5cc6c(cc5F)C(=O)N(C5CCC(=O)NC5=O)C6=O)C4)CC3)c12` (stereo not shown) [Compound 335, 6-Chloro-1-(2-(4-(1-(2-(2,6-dioxopiperidin-3-yl)-6-fluoro-1,3-dioxoisoindolin-5-yl)azetidin-3-yl)piperazin-1-yl)ethyl)-3-(3-((6-fluoronaphthalen-1-yl)oxy)propyl)-7-(1,3,5-trimethyl-1H-pyrazol-4-yl)-1H-indole-2-carboxylic acid]: the IC50 in the test with ARH-77 cells was more than 3160 nM; in the test with MV-4-11 cells, not above 31.6 nM. Further, the EC50 in test [1] was less than 10 nM.

As to `Cc1nc2cc(C(=O)N3CCN(CCn4c(C(=O)O)c(CCCOc5cccc6cc(F)ccc56)c5ccc(Cl)c(-c6c(C)nn(C)c6C)c54)CC3)ccc2cc1C1CCC(=O)NC1=O` (stereo not shown) [Compound 291, 6-Chloro-1-(2-{4-[3-(2,6-dioxopiperidin-3-yl)-2-methylquinoline-7-carbonyl]piperazin-1-yl}ethyl)-3-{3-[(6-fluoronaphthalen-1-yl)oxy]propyl}-7-(1,3,5-trimethyl-1H-pyrazol-4-yl)-1H-indole-2-carboxylic acid], the EC50 in test [1] was less than 100 nM. On the same count and under the same terms, the value for `Cc1nn(C)c(C)c1-c1c(Cl)ccc2c(CCCOc3cccc4cc(F)ccc34)c(C(=O)O)n(CCN3CC4(CCN(C(=O)COc5cccc6c5CN(C5CCC(=O)NC5=O)C6=O)C4)C3)c12` (stereo not shown) [Compound 305, 6-Chloro-1-(2-(6-(2-((2-(2,6-dioxopiperidin-3-yl)-1-oxoisoindolin-4-yl)oxy)acetyl)-2,6-diazaspiro[3.4]octan-2-yl)ethyl)-3-(3-((6-fluoronaphthalen-1-yl)oxy)propyl)-7-(1,3,5-trimethyl-1H-pyrazol-4-yl)-1H-indole-2-carboxylic acid] was less than 100 nM; that for `Cc1cc(OCCCc2c(C(=O)NS(=O)(=O)CCNC(=O)CCOCCOCCNc3cccc4c3C(=O)N(C3CCC(=O)NC3=O)C4=O)n(C)c3c(-c4c(C)nn(C)c4C)c(Cl)ccc23)cc(C)c1Cl` (stereo not shown) [Compound 252, 6-chloro-3-(3-(4-chloro-3,5-dimethylphenoxy)propyl)-N-((2-(3-(2-(2-((2-(2,6-dioxopiperidin-3-yl)-1,3-dioxoisoindolin-4-yl)amino)ethoxy)ethoxy)propanamido)ethyl)sulfonyl)-1-methyl-7-(1,3,5-trimethyl-1H-pyrazol-4-yl)-1H-indole-2-carboxamide] was less than 100 nM. Same read-out and setting: the value for `Cc1nc2cc(OCC(=O)N3CCN(CCn4c(C(=O)O)c(CCCOc5cccc6cc(F)ccc56)c5ccc(Cl)c(-c6c(C)nn(C)c6C)c54)CC3)ccc2cc1C1CCC(=O)NC1=O` (stereo not shown) [Compound 288, 6-Chloro-1-(2-(4-(2-((3-(2,6-dioxopiperidin-3-yl)-2-methylquinolin-7-yl)oxy)acetyl)piperazin-1-yl)ethyl)-3-(3-((6-fluoronaphthalen-1-yl)oxy)propyl)-7-(1,3,5-trimethyl-1H-pyrazol-4-yl)-1H-indole-2-carboxylic acid] was less than 100 nM; that for `Cc1nn(C)c(C)c1-c1c(Cl)ccc2c(CCCOc3cccc4cc(F)ccc34)c(C(=O)O)n(CCN3CC4(CCN(C(=O)COc5cccc6c5CN(C5CCC(=O)NC5=O)C6=O)CC4)C3)c12` (stereo not shown) [Compound 302, 6-Chloro-1-(2-(7-(2-((2-(2,6-dioxopiperidin-3-yl)-1-oxoisoindolin-4-yl)oxy)acetyl)-2,7-diazaspiro[3.5]nonan-2-yl)ethyl)-3-(3-((6-fluoronaphthalen-1-yl)oxy)propyl)-7-(1,3,5-trimethyl-1H-pyrazol-4-yl)-1H-indole-2-carboxylic acid] was less than 10 nM. On the same count and under the same terms, the value for `Cc1nn(C)c(C)c1-c1c(Cl)ccc2c(CCCOc3cccc4cc(F)ccc34)c(C(=O)O)n(CCN3CC4(C3)CN(C(=O)COc3cccc5c3CN(C3CCC(=O)NC3=O)C5=O)C4)c12` (stereo not shown) [Compound 303] was less than 100 nM; that for `Cc1nn(C)c(C)c1-c1c(Cl)ccc2c(CCCOc3cccc4cc(F)ccc34)c(C(=O)O)n(CCN3CCN(C(=O)C(C)(C)Oc4cccc5c4CN(C4CCC(=O)NC4=O)C5=O)CC3)c12` (stereo not shown) [Compound 311, 6-Chloro-1-{2-[4-(2-{[2-(2,6-dioxopiperidin-3-yl)-1-oxo-2,3-dihydro-1H-isoindol-4-yl]oxy}-2-methylpropanoyl)piperazin-1-yl]ethyl}-3-{3-[(6-fluoronaphthalen-1-yl)oxy]propyl}-7-(1,3,5-trimethyl-1H-pyrazol-4-yl)-1H-indole-2-carboxylic acid] was less than 100 nM.
